Measurements from PMC7053711, “A G protein–coupled receptor mediates neuropeptide-induced oocyte maturation in the jellyfish Clytia” (PLoS Biology, 2020).
“Also recorded” adds a separate entry of the source. Peptide text beside a SMILES is read from it.

Legend:
[1] = system: Clytia MIHR; test: Dose–response curves of Clytia MIHR, luminescence (CHO-K1 cells, Gα-16, GFP-apoaequorin); type: cell-based, Clytia hemisphaerica; parameters: key to Span (best-fit value) / Bottom (best-fit value): % activation, normalized to fitted upper plateau (100%); conditions: for EC50: four-parameter fit, variable slope, triplicate; for HillSlope / LogEC50: best-fit value; for Bottom / Span / Top: best-fit value (luminescence)
Protocol: The Clytia MIH amidated peptides are produced from two precursor genes Che-pp4 (generating multiple copies of WPRAamide, WPRYamide, and WPRPamide) and Che-pp1 (multiple copies of WPRPamide and RPRGamide).
Cell culture GPCR ligand response assays were performed as described. Briefly, CHO-K1 cells were cultured in Ham’s F12 Nut Mix medium (Thermo Fisher Scientific) with 10% foetal bovine serum. Cells were seeded in 96-well plates at approximately 10,000 cells/well and transfected the following day with pcDNA3.1(+) plasmids encoding each of the 16 candidate Clytia GPCRs (S2 Text), the promiscuous Gα-16 protein [65], and a reporter construct GFP-apoaequorin [66] (60 ng each) using the transfection reagent TurboFect (Thermo Fisher Scientific). After 2 days of expression, the medium was removed and replaced with Hank’s balanced salt solution (HBSS) supplemented with 1.8 mM Ca2+, 10 mM glucose, and […] coelenterazine h (Promega, Madison, WI). After incubation at 37 °C for 2 hours, cells were tested by adding synthetic peptides (GenScript) in HBSS supplemented with 1.8 mM Ca2^+ and 10 mM glucose. A list of all synthetic peptides used is provided in S2 Table. Luminescence was recorded for 45 seconds in a plate reader (BioTek Synergy Mx or Synergy H4; BioTek, Winooski, VT). Data were integrated over the 45-second measurement period and recorded as technical triplicates in each case. Data were normalized using the response of Platynereis FLamide receptor to 1 μM AKYFL-NH2 [28]. Dose–response curves were obtained using concentrations between 0.01 nM and 100 μM for each peptide. Data for dose–response curves were recorded in triplicate for each concentration and the experiment was repeated independently 3 times. Dose–response curves were fitted with a four-parameter curve using Prism 6 (GraphPad, La Jolla, CA) and were normalized to the calculated upper plateau values (100% activation).
Supplementary file pbio.3000614.s012.xlsx: S2 Data Numerical data corresponding to Fig 1C. The first three tabs show statistical values obtained using Prism 6 software (GraphPad, La Jolla, CA) from the raw luminescence values for 3 independent dose–response experiments. The raw luminescence values are shown, as well as the values normalized with respect to the maximum. […] MIH, maturation-inducing hormone. (XLSX) Click here for additional data file.

[2] = system: wild-type (WT) isolated female gonads; test: Gonad spawning assay, wild-type isolated gonads; parameters: species or system Clytia hemisphaerica
Protocol: (§1) We performed a series of oocyte maturation and spawning assays, comparing the responses of wild-type and MIHR mutant isolated gonads and oocytes to different stimuli (Fig 4).
(§2) Sexually mature MIHR mutant medusae from colonies n5-13 and n5-23 and wild-type medusae were cultured on the same day–night cycle. Individual gonads were dissected in the evening after afternoon spawning. To test the light response, one group of each was transferred to 100 μL MFSW in wells of 96-well plastic plates, covered overnight, and re-exposed to white light the following day. To test responses to MIH and cAMP, other groups of dissected gonads were cultured overnight in constant light, then transferred to 96-well plastic plates for two hours. MIH was added to wells as an equal volume of 200 nM WPRPamide (GenScript) stock in MFSW was added to give a final concentration of 100 nM. Alternatively, a stock of 20 mM bromo adenosine 3′,5′cyclic monophosphate (Br-cAMP–Fluka; Sigma Aldrich) in distilled water was added to give a final concentration of 4 mM. Gonads were washed after 5 minutes incubation in Br-cAMP. Oocyte maturation was scored after 30 minutes as germinal vesicle breakdown (GVBD), i.e., visible dissolution of the oocyte nuclear membrane upon entry into M phase, which in all cases was followed by spawning about 1 hour later.
(§3) Supplementary file pbio.3000614.s013.xlsx: S3 Data Numerical data corresponding to Fig 4A and 4C. The first tab collects all the raw data from 3 independent gonad spawning assays. Information corresponding to the Fisher exact tests is also shown. […] The means and standard deviations were used to prepare the graph in Fig 4C. Information corresponding to the Fisher exact tests is also shown. (XLSX) Click here for additional data file.

[3] = system: MIHR mutant (n5-23, n5-13) isolated female gonads; test: Gonad spawning assay, MIHR mutant isolated gonads; parameters: species or system Clytia hemisphaerica; conditions: for Gonads spawning (number) / Percentage of spawning gonads: 0,1uM WPRPa, MIH R K.O.
Protocol: as §1, §2, §3

[4] = log(agonist) vs. response, variable slope (four parameters), fit of third dataset
[5] = 0,1uM WPRPa, wild type, replicate 1, total 22
[6] = 0,1uM WPRPa, wild type, replicate 2, total 24
[7] = 0,1uM WPRPa, wild type, replicate 3, total 18
[8] = WPRPa, pooled n=64, Fisher exact test vs MIHR KO significant at p < .01
[9] = WPRPa, pooled n=82, Fisher exact test vs WT significant at p < .01

N=C(N)NCCC[C@H](NC(=O)[C@@H]1CCCN1C(=O)[C@@H](N)Cc1c[nH]c2ccccc12)C(=O)N1CCC[C@H]1C(N)=O [WPRPa] (H-WPRP-NH2; N-terminus assumed)
EC50 ([1]; dataset/experiment 1): 220 nM
EC50 ([1]; dataset/experiment 2): 928 nM
HillSlope ([1]; first dataset): 1.128
LogEC50 ([1]; first dataset): -6.658
Bottom ([1]; first dataset): 935
Span ([1]; first dataset): 46105
Top ([1]; first dataset): 47040
Bottom (best-fit value) [1, 4]: 10.51
HillSlope (best-fit value) [1, 4]: 1.078
LogEC50 (best-fit value) [1, 4]: -6.286
Span (best-fit value) [1, 4]: 89.49
HillSlope ([1]; second dataset): 0.9926
LogEC50 ([1]; second dataset): -6.033
Bottom ([1]; second dataset): 1493
Span ([1]; second dataset): 22106
Top ([1]; second dataset): 23599
Percentage of spawning gonads, Mean ([2]; 0,1uM WPRPa, wild type, mean of 3 replicates, Desvest 7.87296): 95.4545
Gonads spawning (number) [2, 5]: 19
Percentage of spawning gonads [2, 5]: 86.3636
Gonads spawning (number) [2, 6]: 24
Percentage of spawning gonads [2, 6]: 100
Gonads spawning (number) [2, 7]: 18
Percentage of spawning gonads [2, 7]: 100
Non-spawning gonads, WT NO [2, 8]: 3
Spawning gonads, WT YES [2, 8]: 61
oocyte maturation and spawning of WT gonads ([2]; isolated WT gonads, 100 nM WPRPamide): underwent oocyte maturation and spawning
Gonads spawning (number) ([3]; replicate 1, total 29): 0
Percentage of spawning gonads ([3]; replicate 1, total 29): 0
Gonads spawning (number) ([3]; replicate 2, total 29): 0
Percentage of spawning gonads ([3]; replicate 2, total 29): 0
Gonads spawning (number) ([3]; replicate 3, total 24): 0
Percentage of spawning gonads ([3]; replicate 3, total 24): 0
Percentage of spawning gonads (summary) ([3]; WPRPa, MIHR K.O., summary of 3 replicates): 0
Non-spawning gonads, MIHR KO NO [3, 9]: 82
Spawning gonads, MIHR KO YES [3, 9]: 0
oocyte maturation and spawning of MIHR mutant gonads, MIH treatment ([3]; isolated MIHR mutant gonads, 100 nM WPRPamide): MIHR mutant gonads did not respond; also recorded: No oocyte maturation or spawning was observed
